Values of other authors as cited in patent US6544543B1, “Periodic constriction of vessels to treat ischemic tissue” (Advanced Cardiovascular Systems, Inc., priority 2000, dated 2003).

Tests used:
[1] = avidin tetramer binds four biotin molecules in solution, noncovalent interaction
[2] = avidin tetramer-biotin noncovalent interaction

In the case of “avidin: polypeptide of at least 128 amino acid residues, forms a tetramer, binds four biotin molecules; member of the affinity pair”, the binding constant [1] is listed as “about 10^15 M^−1” and the half-life in vivo [2] is listed as “about 89 days”.
